{
  "source": "patent US11464791B2",
  "about": "“Use of paricalcitol in the treatment of inflammatory anaemia” (priority 2014, dated 2022)",
  "key": {"[1]": {"experiment": "Study B: cross-sectional comparison of paricalcitol and calcitriol (ESA dose, Hb, PTHi, ferrokinetics)", "assay_type": "in vivo, human", "conditions": "for ESA doses required: Epoetin beta; for PTHi: median (p25-p75)", "description": "A cross-sectional study designed to assess the differences between calcitriol and paricalcitol associated with the use of ESAs, both used in the treatment of secondary hyperparathyroidism. A total of 92 patients from the Chronic Dialysis Unit of the Hospital Universitario Son Espases (HUSE) in Palma de Mallorca and from the Chronic Haemodialysis Unit of the Policlínica Miramar were included. A total of 31 patients were treated with calcitriol and a total of 61 patients were treated with paricalcitol. The ESA analysed was Epoetin beta (Neorecormon).\nIn order to determine whether treatment with calcitriol is capable of giving rise to the same results obtained in the treatment with paricalcitol, the groups of patients included in Study B were analysed (Table 2), one of the groups treated with paricalcitol (n=61) and the other group treated with calcitriol (n=31)."}, "[2]": {"test_system": "transferrin saturation index (TSI)", "experiment": "Study A: evolution of the transferrin saturation index (TSI)", "assay_type": "in vivo, human", "conditions": "for average TSI: subgroup with IV Fe (n=25)", "description": "(§1) A controlled prospective study in which the evolution of ESA doses, Fe supplement doses, evolution of Fe, of transferrin, of ferritin, of the transferrin saturation index, of the haemoglobin levels and of the non-conventional markers associated with inflammatory anaemia was determined: Hepcidin and IL-6 and analysis of the hormones associated with a improved erythropoietic response. The variability of the haemoglobin was also assessed. A total of 31 patients were included in this study. The ESAs used by the patients were Epoetin beta (Neorecormon) and CERA.\n(§2) This study is a controlled, observational and analytical prospective-type study of cases and controls. The study lasted six months. In the first three months the ESA dose titrations were obtained and, in the remaining three months corresponded to the maintenance phase. The data shown in the present invention form part of the MIR-EPO Study (EudraCT: 2009-015511-40) https://www.clinicaltrialsregister.eu. The design of the MIR-EPO Study assessed patients being treated with an erythropietic agent (Epoetin-beta-Neorecormon or CERA). In said patients, the differences between the groups with and without paricalcitol were analysed, due to which the results shown in the present invention related specifically to the following groups: • Group of patients being treated with paricalcitol (paricalcitol+ESA), i.e. combined treatment, and • Group of patients being treated exclusively with an ESA.\nThe administration of iron supplements shall always be intravenous with the aim of maintaining a transferrin saturation index (TSI %) greater than 20%."}, "[3]": {"conditions": "paricalcitol >10 μg/dialysis, haemodialysis patients; cited from earlier work"}, "plasma iron (Fe^2+)": {"test_system": "plasma iron (Fe^2+)", "experiment": "Study A: evolution of iron (Fe^2+) levels", "assay_type": "in vivo, human", "conditions": "for Fe^2+ levels: subgroup with IV Fe supplements (n=25)", "description": "as §1, §2"}, "Erythropoietin": {"test_system": "Erythropoietin", "experiment": "Study A: plasma erythropoietin levels (ELISA)", "assay_type": "in vivo, human", "description": "Analytical determinations: all the blood samples were analysed in the central laboratory of the HUSE, applying the methodology regularly used in clinical practice: • Hb: Haemoglobin was determined on a monthly basis prior to the dialysis session and corresponding weekday. The analysis of the samples was performed using flow cytometry (CELL-DYN Sapphire®—Abbott) at the central laboratory of the HUSE. • Klotho: Human Soluble α-Klotho Assay Kit—IBL. ELISA (Enzyme-LinkedImmunoSorbentAssay) sandwich type using two types of high-specificity anti-Human Klotho antibodies (67G3 and 91F1). Using TeTraMeltilBenzidina (TMB) as a chromogeneous agent. • Hepcidin: DGR HepcidinProhormone ELISA kit. ELISA (Enzyme-LinkedImmunoSorbentAssay) of competitive type with anti-Pro-Hepcidin (polyclonal) antibodies. • IL-6: Quantikine ELISA Human IL-6 immunoassay. ELISA (Enzyme-LinkedImmunoSorbentAssay) sandwich type using specific antibodies for mouse monoclonal and polyclonal IL-6. • Erythropoietin: Quantikine IVD ELISA Human Erythropoietin Immunoassay. […]\nThe non-conventional inflammatory parameters were determined in months 3 and 6 of the study, due to the fact that it is considered that the first three months of the study were dedicated to ESA dose titration and the last three months to the maintenance phase, as mentioned previously. […]"}, "[4]": {"experiment": "Study A (MIR-EPO): ESA dose requirements", "assay_type": "in vivo, human", "description": "as §1\nas §2, with “The data shown in the present invention form part of the MIR-EPO Study (EudraCT: 2009-015511-40) https://www.clinicaltrialsregister.eu.” left out, “ESA. […]” for “ESA.”"}, "[5]": {"experiment": "Study C: cross-sectional study of paricalcitol dose versus ESA dose and Hb levels", "assay_type": "in vivo, human", "conditions": "paricalcitol 5-10 μg/week", "description": "A cross-sectional study designed to assess the distribution of the dose of paricalcitol (μg/week) associated with a greater erythropoietic response. That is, the aim is to assess the predictive capacity of the doses of paricalcitol (μg/week) over the doses of ESA (UI/week), in addition to assessing the doses of paricalcitol to predict Hb levels (g/dl) and identify the doses of paricalcitol associated with certain Hb levels in a range between 10 and 12 g/dl, which are the levels considered to be optimum.\nA total of 58 patients were included in this study. The ESA analysed was Epoetin beta (Neorecormon).\nIn order to determine the most adequate doses required to obtain the best Hb levels and reduce the need for ESAs, a regression analysis was performed between the Hb levels, the doses of ESAs and the dose of paricalcitol in the group of patients of Study C (FIG. 2). As can be observed in said FIG. 2, the doses comprised between 5 and 10 μg were associated to a reduced need for ESAs. This trend was modified on increasing the doses of paricalcitol, due to which, according to this regression model, the administration of doses of paricalcitol higher than 10 μg/week predicts a greater use of ESAs."}, "PTH": {"test_system": "PTH", "conditions": "oral paricalcitol, cited from earlier work"}},
  "note": "Read-outs that look alike come from different tables or passages of the source.",
  "data": [
    {"smiles": "C=C1/C(=C\\C=C2/CCC[C@]3(C)[C@@H]([C@H](C)CCCC(C)(C)O)CC[C@@H]23)C[C@@H](O)C[C@@H]1O", "note": "[calcitriol]", "values": [
      {"measurement": "Ferritin", "setting": "[1]", "result": "168 (111-298) ng/ml"},
      {"measurement": "Hb levels", "setting": "[1]", "result": "11.10 ± 1.16", "unit": "g/dL"},
      {"measurement": "TSI %", "setting": "[1]", "result": "24 ± 10", "unit": "%"},
      {"measurement": "ESA doses required", "setting": "[1]", "result": 9000, "unit": "UI/week"},
      {"measurement": "PTHi", "setting": "[1]", "result": "358 (230-623) pg/ml"}
    ]},
    {"smiles": "C[C@H](/C=C/[C@H](C)C(C)(C)O)[C@H]1CC[C@H]2/C(=C/C=C3C[C@@H](O)C[C@H](O)C3)CCC[C@]12C", "note": "[paricalcitol, 19-nor-1, 25-(OH) 2-vitamin D2]", "values": [
      {"measurement": "Ferritin", "setting": "[1]", "result": "494 (244-701) ng/ml"},
      {"measurement": "Hb levels", "setting": "[1]", "result": "11.89 ± 0.13", "unit": "g/dL"},
      {"measurement": "TSI %", "setting": "[1]", "result": "30 ± 10", "unit": "%"},
      {"measurement": "ESA doses required", "setting": "[1]", "result": "approximately 4000 UI/week"},
      {"measurement": "PTHi", "setting": "[1]", "result": "276 (170-449) pg/ml"},
      {"measurement": "average TSI", "setting": "[2]; month 0", "result": "25±6", "unit": "%"},
      {"measurement": "average TSI", "setting": "[2]; month 3", "result": "24±5", "unit": "%"},
      {"measurement": "average TSI", "setting": "[2]; month 6", "result": "30±19", "unit": "%"},
      {"measurement": "calcium levels", "setting": "[3]", "result": 9.8, "unit": "mg/dL"},
      {"measurement": "Iron (Fe^2+) levels", "setting": "plasma iron (Fe^2+); month 0", "result": "68 ± 23", "unit": "µg/dL"},
      {"measurement": "Iron (Fe^2+) levels", "setting": "plasma iron (Fe^2+); month 3", "result": "68 ± 28", "unit": "µg/dL"},
      {"measurement": "Iron (Fe^2+) levels", "setting": "plasma iron (Fe^2+); month 6", "result": "66 ± 37", "unit": "µg/dL"},
      {"measurement": "Fe^2+ levels", "setting": "plasma iron (Fe^2+); month 0", "result": "61 ± 16", "unit": "µg/dL"},
      {"measurement": "Fe^2+ levels", "setting": "plasma iron (Fe^2+); month 3", "result": "57 ± 14", "unit": "µg/dL"},
      {"measurement": "Fe^2+ levels", "setting": "plasma iron (Fe^2+); month 6", "result": "68 ± 37", "unit": "µg/dL"},
      {"measurement": "plasma erythropoietin levels", "setting": "Erythropoietin; month 3", "result": "8.6 (4.6-16.7) mUI/ml"},
      {"measurement": "plasma erythropoietin levels", "setting": "Erythropoietin; month 6", "result": "20.2 (7.2-33.6) mUI/ml"},
      {"measurement": "evolution of ESA requirements", "setting": "[4]; months 0-6", "result": "significant decrease"},
      {"measurement": "lower dose of ESA versus group treated exclusively with ESA", "setting": "[4]; subgroup with IV Fe, month 6", "result": 24, "unit": "%"},
      {"measurement": "plasma Hb levels predicted by regression", "setting": "[5]", "result": "10-12 g/dl"},
      {"measurement": "PTH levels", "setting": "PTH; after treatment", "result": 93, "unit": "pg/mL"},
      {"measurement": "PTH levels", "setting": "PTH; basal level", "result": 147, "unit": "pg/mL"},
      {"measurement": "reduction of PTH levels with respect to the basal level", "setting": "PTH", "result": "~40", "unit": "%"}
    ]},
    {"smiles": "C=C1CC[C@H](O)C/C1=C/C=C1\\CCC[C@]2(C)[C@@H]([C@H](C)CCCC(C)(C)O)CC[C@@H]12", "note": "[hidroferol, calcifediol]", "values": [
      {"measurement": "effect over TSI", "setting": "[2]; 6 months", "result": "not beneficial"},
      {"measurement": "TSI levels", "setting": "[2]; month 0", "result": "29±12", "unit": "%"},
      {"measurement": "TSI levels", "setting": "[2]; month 3", "result": "33±14", "unit": "%"},
      {"measurement": "TSI levels", "setting": "[2]; month 6", "result": "25±9", "unit": "%"}
    ]}
  ]
}
